In PubChem BioAssay (NCI) one finds TGI and GI50 data, which are given here for ten molecules.

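Briefly, cells in 96-well plates were exposed to five compound concentrations for 48 h, and endpoints were estimated by linear interpolation. Here, GI50 denotes the concentration required for 50% inhibition of growth. TGI is the concentration that stops growth completely.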 Bounds are passed on as bounds.

Among the test systems are K-562 leukemia; A549 NSCLC; DLD-1 colon; COLO 205 colon; M19-MEL melanoma; NCI-H522 lung; OVCAR-8 ovarian; SF-268 CNS; HCT-116 colon; SNB-78 CNS; MDA-MB-435.
What all share (assay): growth of human tumour cells (NCI), 48 h

As for `COc1ccc(OC(=O)CC2Cc3cc(OC)c(OC)c(OC)c3-c3ccc(SC)c(=O)cc32)cc1` (stereo unspecified), the TGI was more than 100 µM with K-562 leukemia; more than 100 µM with A549 NSCLC; more than 34.6 µM with DLD-1 colon; more than 100 µM with COLO 205 colon; more than 100 µM with M19-MEL melanoma; 0.527 µM in the experiment with NCI-H522 lung. In addition, the TGI in the experiment with OVCAR-8 ovarian was more than 37.1 µM; in the experiment on SF-268 CNS, more than 100 µM; with HCT-116 colon, 11.2 µM.
As for `CC(=O)/C(=C\c1ccccc1O)C(=O)Nc1ccccc1C`, the TGI in the experiment with SNB-78 CNS is 98.7 µM; with K-562 leukemia, more than 100 µM; in the experiment on A549 NSCLC it was 89.1 µM; in the experiment on DLD-1 colon, 79.1 µM; in the experiment on M19-MEL melanoma, more than 100 µM; in the experiment with OVCAR-8 ovarian, more than 100 µM. The TGI in the experiment on SF-268 CNS and in the experiment with HCT-116 colon was more than 100 µM throughout.
For `CCN1C(=O)N(CC)C2C1NN=c1s/c(=C\c3ccc(F)cc3)c(=O)n12` (stereo unspecified), the GI50 was 0.0566 µM in the experiment on K-562 leukemia; 0.347 µM in the experiment with A549 NSCLC; 0.277 µM in the experiment with COLO 205 colon; 0.0931 µM in the experiment with NCI-H522 lung; 0.0317 µM in the experiment with MDA-MB-435; 0.43 µM in the experiment with OVCAR-8 ovarian. In addition, the GI50 is 0.807 µM with SF-268 CNS and 0.211 µM in the experiment with HCT-116 colon. In addition, the TGI with K-562 leukemia is more than 100 µM; with A549 NSCLC it was more than 100 µM; in the experiment with COLO 205 colon, 1.43 µM; with NCI-H522 lung, 0.903 µM; with MDA-MB-435 it was 0.121 µM; in the experiment on OVCAR-8 ovarian, more than 100 µM. The TGI in the experiment with SF-268 CNS and in the experiment with HCT-116 colon was more than 100 µM each time.
Take `Fc1ccc(/C=N/n2c(-c3ccc(F)c(Cl)c3)n[nH]c2=S)cc1`: the GI50 in the experiment with K-562 leukemia was 19.3 µM; with A549 NSCLC it was 21.4 µM; in the experiment on COLO 205 colon it was 37.3 µM; with NCI-H522 lung, 23.3 µM; with MDA-MB-435, 57.7 µM; in the experiment with OVCAR-8 ovarian it was 34.7 µM. The GI50 in the experiment on SF-268 CNS is 19.8 µM; with HCT-116 colon, 16.3 µM. Further, the TGI in the experiment with K-562 leukemia was 36.6 µM; in the experiment on A549 NSCLC it was 46 µM; in the experiment on COLO 205 colon it was more than 100 µM; with NCI-H522 lung it was 52.2 µM; in the experiment with MDA-MB-435 it was more than 100 µM; in the experiment on OVCAR-8 ovarian, more than 100 µM. Further, the figures for the TGI in the experiment on SF-268 CNS and in the experiment on HCT-116 colon were 42.1 µM and 29.9 µM, respectively.
On to `c1cc(N2CCN(c3ccc(C4=NCCCN4)cc3)CC2)ccc1C1=NCCCN1`, for which the GI50 in the experiment with K-562 leukemia is more than 65.5 µM; in the experiment with A549 NSCLC, more than 80.6 µM; with COLO 205 colon, more than 45.6 µM; with NCI-H522 lung it was more than 55.9 µM; in the experiment on OVCAR-8 ovarian it was more than 95.7 µM; with SF-268 CNS it was more than 75.8 µM. The GI50 in the experiment with HCT-116 colon was 50.2 µM. Further, the TGI in the experiment with K-562 leukemia was more than 100 µM; in the experiment with A549 NSCLC it was more than 100 µM; with COLO 205 colon, more than 100 µM; in the experiment with NCI-H522 lung, more than 100 µM; in the experiment with MDA-MB-435, more than 20.3 µM; with OVCAR-8 ovarian, more than 100 µM. Also, the TGI in the experiment with SF-268 CNS and in the experiment on HCT-116 colon was more than 100 µM each time.
For the molecule `CCOC(=O)c1cc2c(cc1Cl)SC(=Nc1ccccc1)N(S(=O)(=O)c1ccc(Br)s1)S2(=O)=O`, the GI50 with K-562 leukemia is 4.73 µM; in the experiment on A549 NSCLC it was 21.4 µM; in the experiment on COLO 205 colon, 25.2 µM; in the experiment with NCI-H522 lung, 26.4 µM; in the experiment with MDA-MB-435, 13.4 µM; in the experiment with OVCAR-8 ovarian it was 17 µM. Moreover, the GI50 in the experiment on SF-268 CNS was 19.2 µM; with HCT-116 colon it was 14.8 µM. In addition, the TGI was 21.1 µM in the experiment with K-562 leukemia; 53.8 µM with A549 NSCLC; more than 100 µM in the experiment with COLO 205 colon; 74.9 µM in the experiment with NCI-H522 lung; 28.3 µM with MDA-MB-435; 39.3 µM in the experiment with OVCAR-8 ovarian. In addition, the TGI in the experiment on SF-268 CNS came to 46.5 µM; in the experiment on HCT-116 colon, 30.8 µM.
For `COc1ccc(/C=C(\C)[N+](=O)[O-])cc1OC`, the GI50 was 2.17 µM in the experiment on K-562 leukemia; 5.56 µM with A549 NSCLC; 2.23 µM in the experiment on COLO 205 colon; 1.34 µM in the experiment on NCI-H522 lung; 1.86 µM in the experiment with MDA-MB-435; 2.61 µM in the experiment with OVCAR-8 ovarian. The results for the GI50 in the experiment on SF-268 CNS and in the experiment with HCT-116 colon were 2.26 µM and 1.81 µM, respectively. The TGI with K-562 leukemia is more than 100 µM; with A549 NSCLC, 19.3 µM; in the experiment with COLO 205 colon, 4.46 µM; with NCI-H522 lung, 2.94 µM; in the experiment with MDA-MB-435, 3.94 µM; with OVCAR-8 ovarian, 6.29 µM. The TGI is 5.46 µM in the experiment with SF-268 CNS and 3.46 µM with HCT-116 colon.
For `COc1ccc2c(c1)C(=O)c1c-2c(OCCN(C)C)nc2ccccc12`, the GI50 is 1.6 µM with K-562 leukemia; 1.33 µM in the experiment on A549 NSCLC; 1.83 µM in the experiment with COLO 205 colon; 1.87 µM in the experiment on NCI-H522 lung; 2.58 µM with MDA-MB-435; 2.54 µM in the experiment with OVCAR-8 ovarian. The GI50 in the experiment on SF-268 CNS is 2.34 µM; with HCT-116 colon, 0.768 µM. The TGI was 10.3 µM in the experiment on K-562 leukemia; 4.54 µM in the experiment on A549 NSCLC; 10.1 µM in the experiment on COLO 205 colon; 4.75 µM in the experiment with NCI-H522 lung; 10.1 µM with MDA-MB-435; 11.9 µM with OVCAR-8 ovarian. The TGI came out at 10.7 µM with SF-268 CNS and 10.8 µM in the experiment on HCT-116 colon.
For `Cc1ccncc1C(N)=O`, the GI50 in the experiment on K-562 leukemia, in the experiment with A549 NSCLC, with COLO 205 colon, with NCI-H522 lung, in the experiment on MDA-MB-435 and in the experiment on OVCAR-8 ovarian was more than 100 µM throughout. In addition, the GI50 in the experiment with SF-268 CNS and with HCT-116 colon was more than 100 µM each time. Besides, the TGI in the experiment with K-562 leukemia, in the experiment on A549 NSCLC, in the experiment on COLO 205 colon, with NCI-H522 lung, in the experiment with MDA-MB-435 and in the experiment with OVCAR-8 ovarian was more than 100 µM throughout. For the same molecule, the TGI in the experiment on SF-268 CNS and with HCT-116 colon was more than 100 µM each time.
On to `CC(CO)(Nc1ccc([N+](=O)[O-])cc1[N+](=O)[O-])C(=O)O` (stereo unspecified), for which the TGI was 38.6 µM with K-562 leukemia; more than 100 µM in the experiment with A549 NSCLC; 32.8 µM in the experiment with COLO 205 colon; 39 µM with NCI-H522 lung; 44.9 µM with MDA-MB-435; more than 100 µM with OVCAR-8 ovarian. Further, the TGI with SF-268 CNS was 48.9 µM; in the experiment with HCT-116 colon it was more than 100 µM.
